Measurements taken from patent US20150352108A1, “AMINO-PYRIMIDINE COMPOUNDS AS INHIBITORS OF TBK1 AND/OR IKK EPSILON” (Alzheimer's Institute of America, priority 2009, published 2015).
Where two headings read alike, the source gives them in different places.

Legend:
TBK1 = molecular target: T1, TBK1 (Homo sapiens, UniProt Q9UHD2); experiment: In-vitro TBK1 kinase assay ([γ33]ATP filter-plate); type: biochemical
T1 construct: His-tag; made in house; host or cells: Sf9 insect cells
T1 sequence (Q9UHD2 1-729): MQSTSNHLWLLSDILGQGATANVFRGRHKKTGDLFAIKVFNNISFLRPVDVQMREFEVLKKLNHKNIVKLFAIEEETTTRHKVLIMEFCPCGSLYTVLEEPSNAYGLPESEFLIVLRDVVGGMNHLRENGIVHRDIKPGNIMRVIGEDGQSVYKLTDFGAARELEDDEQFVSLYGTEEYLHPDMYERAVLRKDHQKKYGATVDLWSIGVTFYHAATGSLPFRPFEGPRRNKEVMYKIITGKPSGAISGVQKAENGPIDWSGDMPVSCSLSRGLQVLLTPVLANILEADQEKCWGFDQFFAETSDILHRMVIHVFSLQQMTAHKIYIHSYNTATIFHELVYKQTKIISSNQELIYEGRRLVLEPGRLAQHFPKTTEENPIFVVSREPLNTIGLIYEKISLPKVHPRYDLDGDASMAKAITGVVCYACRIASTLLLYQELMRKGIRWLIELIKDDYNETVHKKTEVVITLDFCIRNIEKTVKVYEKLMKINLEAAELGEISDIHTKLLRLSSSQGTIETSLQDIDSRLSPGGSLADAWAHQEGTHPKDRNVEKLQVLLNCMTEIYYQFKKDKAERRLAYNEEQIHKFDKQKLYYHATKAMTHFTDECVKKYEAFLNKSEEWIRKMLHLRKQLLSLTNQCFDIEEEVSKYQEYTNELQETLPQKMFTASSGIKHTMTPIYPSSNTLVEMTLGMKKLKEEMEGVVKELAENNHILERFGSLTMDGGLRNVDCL
Experimental: IKKε enzyme was produced as a His-tag fusion in Sf9 cells and used at a final concentration of […]. TBK1 enzyme was produced as a His-tag fusion in Sf9 cells and used at a final concentration of 0.1 μg/ml. Kinase reactions were carried out in reaction buffer using myelin basic protein (Millipore, Ballerica, Mass.) or casein (Sigma, St. Louis, Mo.) as substrate at an ATP concentration equal to twice the Km,ATP value for each enzyme, corresponding to 32 μM ATP for IKKε and 60 μM ATP for TBK1, in the presence of 0.3 μCi [γ^33]ATP (PerkinElmer, Waltham, Mass.). Final enzyme concentrations were 0.1 or 0.015 μg/ml (IKKε) and 0.1 or 0.02 μg/ml (TBK1), representing “normal” and “sensitized” assay conditions respectively. Test compounds (or DMSO solvent as a control) were added prior to initiation of the reactions. Reactions were terminated after 30-45 minutes by adding 3% phosphoric acid. Terminated reactions were transferred to P-81 cellulose phosphate filterplates (Whatman, Inc., Piscataway, N.J.) and washed with 1% phosphoric acid on a vacuum apparatus. After air drying, scintillant (PerkinElmer, Waltham, Mass.) was added and the plates were read on a PerkinElmer TopCount NXT instrument. Counts were normalized to DMSO controls after background subtraction.

IKKε = molecular target: T2, IKKε (Homo sapiens, UniProt Q14164); experiment: In-vitro IKKε kinase assay ([γ33]ATP filter-plate); type: biochemical
T2 construct: His-tag; made in house; host or cells: Sf9 insect cells
T2 sequence (Q14164 1-716): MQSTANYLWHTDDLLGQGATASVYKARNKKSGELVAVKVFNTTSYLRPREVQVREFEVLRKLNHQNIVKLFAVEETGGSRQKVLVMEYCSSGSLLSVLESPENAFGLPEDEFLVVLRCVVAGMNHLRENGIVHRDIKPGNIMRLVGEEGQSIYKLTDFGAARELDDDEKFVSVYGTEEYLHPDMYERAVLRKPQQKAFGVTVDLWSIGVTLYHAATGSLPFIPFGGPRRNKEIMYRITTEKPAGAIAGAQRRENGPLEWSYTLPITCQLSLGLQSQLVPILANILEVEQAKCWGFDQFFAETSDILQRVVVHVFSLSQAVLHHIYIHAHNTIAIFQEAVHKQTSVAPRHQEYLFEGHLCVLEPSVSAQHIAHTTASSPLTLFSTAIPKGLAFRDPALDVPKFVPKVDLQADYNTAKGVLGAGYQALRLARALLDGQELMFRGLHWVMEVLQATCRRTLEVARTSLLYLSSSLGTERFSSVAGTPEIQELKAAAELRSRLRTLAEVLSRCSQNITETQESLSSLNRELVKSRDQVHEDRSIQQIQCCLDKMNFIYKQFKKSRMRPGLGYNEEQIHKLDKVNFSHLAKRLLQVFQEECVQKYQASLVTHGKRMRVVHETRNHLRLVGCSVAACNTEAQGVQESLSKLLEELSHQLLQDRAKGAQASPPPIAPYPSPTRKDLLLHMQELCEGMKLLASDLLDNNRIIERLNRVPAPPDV
Outline: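 His-tagged Sf9-expressed kinases at 0.1 or 0.02 μg/ml (TBK1) and 0.1 or 0.015 μg/ml (IKKε) for normal and sensitized formats, with myelin basic protein or casein substrate. ATP was at 2×Km (60 μM TBK1, 32 μM IKKε) plus 0.3 μCi [γ33]ATP. Reactions ran 30-45 min, were captured on P-81 filters, and counts were normalized to DMSO.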

[1] = text bins, read-out: IC50 for inhibition of the kinase activity of TBK1
[2] = text bins, read-out: IC50 for inhibition of the kinase activity of IKKε

Row | IC50 (TBK1; [1]) [nM] | IC50 (IKKε; [2]) [nM] | IC50 (TBK1; Table 3, read-out: TBK1 IC50) [nM] | IC50 (IKKε; Table 3, read-out: IKKε IC50) [nM] | Compound
1 | 10 to 100 | 5 to 50 |  |  | COc1cc(Nc2nccc(-c3ccc(OC4CCN(S(C)(=O)=O)CC4)c(C#N)c3)n2)ccc1N1CCOCC1 [Example 79, 5-(2-{[3-methoxy-4-(morpholin-4-yl)phenyl]amino}pyrimidin-4-yl)-2-{[1-(methylsulfonyl)piperidin-4-yl]oxy}benzonitrile]
2 | < 10 | < 5 | 0.4 | 0.8 | N#Cc1cc(-c2ccnc(Nc3ccc(N4CCOCC4)cc3)n2)ccc1OC1CCN(S(N)(=O)=O)CC1 [Example 80, 4-[2-cyano-4-(2-{[4-(morpholin-4-yl)phenyl]amino}pyrimidin-4-yl)phenoxy]piperidine-1-sulfonamide]
3 | < 10 | < 5 |  |  | CN(C)C(=O)CN(C)c1ccc(Nc2nccc(-c3ccc(OC4CCOCC4)c(C#N)c3)n2)cc1 [Example 82, N~2~-[4-({4-[3-cyano-4-(tetrahydro-2H-pyran-4-yloxy)phenyl]pyrimidin-2-yl}amino)phenyl]-N,N,N~2~- trimethylglycinamide]
4 | 10 to 100 | 5 to 50 |  |  | COc1ccc(Nc2nccc(-c3ccc(C)c(C#N)c3)n2)cc1OC [Example 85, 5-{2-[(3,4-Dimethoxyphenyl)amino]pyrimidin-4-yl}-2-methylbenzonitrile]
5 | 10 to 100 | 5 to 50 |  |  | CC(=O)N1CCC(Oc2ccc(-c3ccnc(Nc4ccc(N5CCOCC5)cc4)n3)cc2C#N)CC1 [Example 86, 2-[(1-Acetylpiperidin-4-yl)oxy]-5-(2-{[4-(morpholin-4-yl)phenyl]amino}pyrimidin-4-yl)benzonitrile]
6 | < 10 | < 5 |  |  | COc1cc(Nc2nccc(-c3ccc(NC(=O)C(C)C)c(C#N)c3)n2)ccc1N1CCNC(=O)C1 [Example 88, N-[2-Cyano-4-(2-{[3-methoxy-4-(3-oxopiperazin-1-yl)phenyl]amino}pyrimidin-4-yl)phenyl]-2-methylpropanamide]
7 | 10 to 100 | 5 to 50 |  |  | CN1CCN(c2ccc(Nc3nccc(-c4ccc(OC5CCNC5)c(C#N)c4)n3)cc2)CC1 (stereo not drawn) [Example 90, 5-(2-{[4-(4-methylpiperazin-1-yl)phenyl]amino}pyrimidin-4-yl)-2-(pyrrolidin-3-yloxy)benzonitrile]
8 | < 10 | < 5 |  |  | N#Cc1cc(-c2ccnc(Nc3ccc(N4CCOCC4)cc3)n2)ccc1NC(=O)C1CC1 [Example 91, N-[2-cyano-4-(2-{[4-(morpholin-4-yl)phenyl]amino}pyrimidin-4-yl)phenyl] cyclopropane-carboxamide]
9 | 10 to 100 | 5 to 50 |  |  | N#Cc1cc(-c2ccnc(Nc3ccc(N4CCOCC4)cc3)n2)ccc1OCC1CCCNC1 (stereo not drawn) [Example 94]
10 | < 10 | < 5 |  |  | N#Cc1cc(-c2ccnc(Nc3ccc(N4CCOCC4)cc3)n2)ccc1OC1CCN(C(=O)CO)C1 (stereo not drawn) [Example 96, 2-{[1-(Hydroxyacetyl)pyrrolidin-3-yl]oxy}-5-(2-{[4-(morpholin-4-yl)phenyl]amino}pyrimidin-4-yl)benzonitrile]
11 | < 10 | < 5 |  |  | COc1ccc(-c2ccnc(Nc3ccc(N4CCOCC4)c(Cl)c3)n2)cc1C#N [Example 98]
12 | < 10 | < 5 |  |  | CS(=O)(=O)N1CCN(c2ccc(Nc3nccc(-c4ccc(OC5CCOCC5)c(C#N)c4)n3)cc2)CC1 [Example 100, 5-[2-({4-[4-(methylsulfonyl)piperazin-1-yl]phenyl}amino)pyrimidin-4-yl]-2-(tetrahydro-2H-pyran-4-yloxy)benzonitrile]
13 | < 10 | < 5 |  |  | COc1ccc(-c2ccnc(Nc3ccc(N4CCCNC(=O)C4)c(OC)c3)n2)cc1C#N [Example 104, 2-Methoxy-5-(2-{[3-methoxy-4-(3-oxo-1,4-diazepan-1-yl)phenyl]amino}pyrimidin-4-yl)benzonitrile]
14 | 10 to 100 | 5 to 50 |  |  | COc1cc(Nc2nccc(-c3ccc(OC4CCN(C(=O)[C@H](C)O)CC4)c(C#N)c3)n2)ccc1OCCOCCN [Example 105, 5-[2-({4-[2-(2-aminoethoxy)ethoxy]-3-methoxyphenyl}amino)pyrimidin-4-yl]-2-({1-[(2S)-2-hydroxypropanoyl]piperidin-4-yl}oxy)benzonitrile]
15 | < 10 | < 5 |  |  | CNc1ccc(-c2ccnc(Nc3ccc(OC)c(OC)c3)n2)cc1C#N [Example 107, 5-{2-[(3,4-Dimethoxyphenyl)amino]pyrimidin-4-yl}-2-(methylamino) benzonitrile]
16 | < 10 | 5 to 50 |  |  | COc1ccc(-c2ccnc(Nc3cc(CN4CCNC(=O)C4)c(OC)c(OC)c3)n2)cc1C#N [Example 110, 5-[2-({3,4-Dimethoxy-5-[(3-oxopiperazin-1-yl)methyl]phenyl}amino)pyrimidin-4-yl]-2-methoxybenzonitrile]
17 | < 10 | < 5 |  |  | COc1ccc(Nc2nccc(-c3ccc(OC(C)C)c(C#N)c3)n2)cc1OC [Example 111, 5-{2-[(3,4-Dimethoxyphenyl)amino]pyrimidin-4-yl}-2-(propan-2-yloxy)benzonitrile]
18 | 10 to 100 | < 5 |  |  | COc1ccc(-c2ccnc(Nc3cc(CN(C)CC(=O)N(C)C)c(OC)c(OC)c3)n2)cc1C#N [Example 115, N~2~-(5-{[4-(3-Cyano-4-methoxyphenyl)pyrimidin-2-yl]amino}-2,3-dimethoxybenzyl)-N,N,N~2~- trimethylglycinamide]
19 | < 10 | 5 to 50 |  |  | COc1cc(Nc2nccc(-c3ccc(OC4CCN(C(=O)[C@H](C)O)C4)c(C#N)c3)n2)ccc1N1CCOCC1 (stereo partly drawn) [Example 116, 2-({1-[(2S)-2-hydroxypropanoyl]pyrrolidin-3-yl}oxy)-5-(2-{[3-methoxy-4-(morpholin-4-yl)phenyl]amino}pyrimidin-4-yl)benzonitrile]
20 | 10 to 100 | 5 to 50 |  |  | CC(=O)Nc1ccc(-c2ccnc(Nc3ccc(N4CCOCC4)cc3)n2)cc1C#N [Example 117, N-[2-Cyano-4-(2-{[4-(morpholin-4-yl)phenyl]amino}pyrimidin-4-yl)phenyl]acetamide]
21 | < 10 | < 5 |  |  | COc1ccc(Nc2nccc(-c3ccc(O)c(C#N)c3)n2)cc1OC [Example 118]
22 | 10 to 100 | 5 to 50 |  |  | CCN1CCN(c2ccc(-c3ccnc(Nc4ccc(N5CCOCC5)cc4)n3)cc2C#N)CC1 [Example 123, 2-(4-Ethylpiperazin-1-yl)-5-(2-{[4-(morpholin-4-yl)phenyl]amino}pyrimidin-4-yl)benzonitrile]
23 | < 10 | < 5 |  |  | COc1ccc(-c2ccnc(Nc3ccc(N4CCN(C)C(=O)C4)c(OC)c3)n2)cc1C#N [Example 124]
